Reference: EP4722219A1 (Gan & Lee Pharmaceuticals Co., Ltd., priority 2023, dated 2024)
pIC50: −log10 of the molar value.

Legend:
Format in all cases: cell-based
MCF-7 cells = test: Inhibition of cell proliferation in MCF-7 cells (CCK-8); conditions: MCF-7 cell proliferation, 6 days treatment
Protocol: Test Example 3 Inhibitory effect of PROTAC compounds provided by the present invention on cell proliferation in MCF-7 cells
The complete culture medium required for MCF-7 cells (source ATCC) is DMEM (gibco, Product number: 11995-065) basal culture medium containing 10% fetal bovine serum. MCF-7 cells were seeded in 96-well plates at a density of 800 cells/well, and different concentrations of PROTAC compounds 1-55 provided in the examples of the present invention and positive control sample ARV-471 (source: Inokai) were prepared to treat the cells and incubated at 37 °C, 5% CO2 cell culture incubator for 6 days. According to the manufacturer's instructions, cell viability was detected using a CCK-8 kit (Beyotime, Product number: C0040). The IC50 of each PROTAC compound after treating for 6 days was calculated using GraphPadPrism software based on the inhibition rate. Table 3 Inhibition IC50 value of MCF-7 cell proliferation by PROTAC compounds of the present invention and positive control sample

ERα [1] = biological target: T1, ERα (Homo sapiens, UniProt P03372); test: ERα degradation in MCF-7 cells (Western blot); parameters: host or cells: MCF-7; conditions: 4 hours
T1 sequence (P03372 1-595): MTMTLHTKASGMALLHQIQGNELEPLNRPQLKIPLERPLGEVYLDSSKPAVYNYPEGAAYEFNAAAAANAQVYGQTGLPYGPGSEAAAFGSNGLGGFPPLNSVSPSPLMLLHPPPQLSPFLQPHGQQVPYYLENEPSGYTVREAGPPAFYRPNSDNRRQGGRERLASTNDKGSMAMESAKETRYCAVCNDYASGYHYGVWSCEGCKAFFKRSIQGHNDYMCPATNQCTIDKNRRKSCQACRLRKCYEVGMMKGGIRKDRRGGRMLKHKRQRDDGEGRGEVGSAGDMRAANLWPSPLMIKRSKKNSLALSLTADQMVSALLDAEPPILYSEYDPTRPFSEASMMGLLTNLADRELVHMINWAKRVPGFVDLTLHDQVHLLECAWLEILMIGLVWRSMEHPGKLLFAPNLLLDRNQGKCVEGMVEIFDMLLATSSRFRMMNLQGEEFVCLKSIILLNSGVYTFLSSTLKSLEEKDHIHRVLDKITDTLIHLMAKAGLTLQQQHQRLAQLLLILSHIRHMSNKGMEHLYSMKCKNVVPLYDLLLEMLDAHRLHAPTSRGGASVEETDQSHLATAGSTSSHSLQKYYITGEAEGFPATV
Protocol: Test Example 4 Effect of PROTAC Compounds Disclosed in the Present Invention on ERα Degradation in MCF-7 Cells
MCF-7 (ATCC) cells were cultured in DMEM medium (11995-065, Gibco) containing 10% FBS (10099141C, Gibco) at 37°C and 5% CO2 until they entered the logarithmic growth phase. MCF-7 cells were plated at a density of 3×10^5 cells/well in a 6-well plate and incubated at 37°C, 5% CO2 for 24 hours. After cell attachment, 1µL of compound in dimethyl sulfoxide (final concentration 0.15-1000nM) was added and incubated for another 4 hours at 37°C, 5% CO2 incubator. After 4 hours, the culture medium was discarded, and each well was washed once with 1 mL of pre-chilled 1× DPBS. The cells were then lysed with 50 µL of RIPA lysis buffer (P0013B, Beyotime) and 1× protease inhibitor cocktail (P1005, Beyotime). After incubation on ice for 20 minutes, the cells were centrifuged at 14,000 g at 4°C for 30 minutes. The supernatant was carefully collected and analyzed for ERα protein levels by immunoblotting.
(§1) Western blotting: The total protein concentration in the collected cell lysate supernatant was determined using the BCA protein concentration assay kit (enhanced) (P0009, Beyotime). Based on the total protein concentration determined by BCA, the protein concentration was adjusted to 1 µg/µL using RIPA lysis buffer and 5× SDS-PAGE protein loading buffer (MB01015, GenScript). The protein was denatured in a 95°C water bath for 5 minutes. After denaturation, the condensed water on the tube wall was collected by centrifugation and used as the loading sample. 20µL of the loading sample (20 µg of total protein) was added to the sample well of a 12% precast gel (M00669, GenScript). Electrophoresis was performed at 100 V for 20 minutes, followed by switching to 150 V for 40 minutes. After electrophoresis, the proteins from the SDS-PAGE gel were transferred to a PVDF membrane at a constant voltage of 100 V for 60 minutes. After transfer, the PVDF membrane corresponding to the ERα protein and internal reference protein was cut and incubated in 1× QµickBlock blocking buffer (P0252, Beyotime) for 30 minutes at room temperature on a shaker. After blocking, the ERα primary antibody (1:1000, 8644S, CST) was added and incubated overnight at 4°C on a shaker. The PVDF membrane was washed three times with 1× TBST buffer for 5 minutes each. Rabbit IgG (H+L) secondary antibody (1:7500, SA5-35571, Invitrogen) was added and incubated for 1 hour at room temperature on a shaker. The membrane was then washed again three times with 1× TBST buffer for 5 minutes each. Finally, the membrane was imaged using a dual-color infrared laser imaging system (Odyssey DLx, LICOR). Protein maps were analyzed for grayscale value using Image Studio Lite software. The grayscale correction value for each sample was calculated using the formula: grayscale correction value = grayscale value of the target protein / grayscale value of the corresponding internal reference. Then the grayscale correction values of the compound group and the control group were compared to calculate the degradation rate of the compound. Table 4 Degradation rate of ERα by PROTAC compounds of the present invention and positive control in MCF-7 cells (%)

ERα [2] = biological target: T1, ERα; test: ERα degradation in T-47D cells (Western blot); conditions: 4 hours
Protocol: as §1
Test Example 5 Degradation of ERα by the PROTAC compounds disclosed in the present invention in T-47D cells
T-47D (ATCC) cells were cultured in PRMI-1640 medium (30-2001, ATCC) containing 10% FBS (10099141C, Gibco) at 37°C and 5% CO2 until they entered the logarithmic growth phase. T-47D cells were seeded at a density of 3×10^5 cells/well in a 6-well plate and incubated at 37°C, 5% CO2 for 24 hours. After cell attachment, 1 µL of compound dimethyl sulfoxide solution (final concentration 0.15-1000 nM) was added and incubated for another 4 hours at 37°C, 5% CO2 incubator. After 4 hours, the culture medium was discarded, and each well was washed once with 1 mL of pre-chilled 1× DPBS. The cells were then lysed with 50 µL of RIPA lysis buffer (P0013B, Beyotime) and 1× protease inhibitor cocktail (P1005, Beyotime). After incubation on ice for 20 minutes, the cells were centrifuged at 14,000 g at 4°C for 30 minutes. The supernatant was carefully collected and analyzed for ERα protein levels by immunoblotting. Table 5 Degradation rate of ERα by PROTAC compounds of the present invention and positive control sample in T-47D cells (%)

T-47D cells = test: Inhibition of cell proliferation in T-47D cells (CCK-8); conditions: 6 days treatment, CCK-8 cell viability
Protocol: Test Example 2 Inhibitory effect of PROTAC compounds provided by the present invention on cell proliferation in T-47D cells
The complete culture medium required for T-47D cells is 1640 (ATCC, Product number: A10491-01) basal culture medium containing 10% fetal bovine serum. T-47D cells were seeded in 96-well plates at a density of 3,000 cells/well, and different concentrations of PROTAC compounds 1-55 provided in the examples of the present invention and positive control sample ARV-471 (source: Inokai) were prepared to treat the cells and incubated at 37 °C, 5% CO2 cell culture incubator for 6 days. According to the manufacturer's instructions, cell viability was detected using a CCK-8 kit (Beyotime, Product number: C0040). The IC50 of each compound after treating for 6 days was calculated using GraphPadPrism software based on the inhibition rate. Table 2 Inhibition IC50 value of T-47D cell proliferation by PROTAC compounds provided by the present invention and positive control sample

| Structure (SMILES) | pIC50 (MCF-7 cells; Homo sapiens, MCF7, 144 h) | Degradation rate of ERα in MCF-7 cells (%) (ERα [1]; 1nM) | Degradation rate of ERα in MCF-7 cells (%) (ERα [1]; 10nM) | Degradation rate of ERα in T-47D cells (%) (ERα [2]; 1nM) | Degradation rate of ERα in T-47D cells (%) (ERα [2]; 10nM) | pIC50 (T-47D cells; Homo sapiens, T47D, 144 h) | pIC50 (MCF-7 cells) | pIC50 (T-47D cells) |
| --- | --- | --- | --- | --- | --- | --- | --- | --- |
| Cn1c(=O)n(C2CCC(=O)NC2=O)c2cc3c(cc21)C1(CCN(C(=O)C2CN(CC4CCN(c5ccc([C@@H]6c7ccc(O)cc7CC[C@@H]6c6ccccc6)cc5)CC4)C2)CC1)CO3 (stereo partly shown) [ER-P-26] | 6.90 | 43% | 40% | 58% | 70% | 9.29 | – | – |
| Cn1c(=O)n(C2CCC(=O)NC2=O)c2cc3c(cc21)C1(CCN(C[C@H]2CC[C@@H](OC4CCN(c5ccc([C@@H]6c7ccc(O)cc7CC[C@@H]6c6ccccc6)cc5)CC4)CC2)CC1)CO3 (stereo partly drawn) [ER-P-55, 3-(1'-(((1S,4S)-4-((1-(4-((1R,2S)-6-hydroxy-2-phenyl-1,2,3,4-tetrahydronaphthalen-1-yl)phenyl)piperidin-4-yl)oxy)cyclohexyl)methyl)-1-methyl-2-oxo-1,2-dihydro-3H,6H-spiro[benzofuro[5,6-d]imidazole-7,4'-piperidin]-3-yl)piperidine-2,6-dione] | 6.95 | 35% | 69% | 62% | 87% | 9.74 | – | – |
| O=C1CCC(N2Cc3c(ccc4c3OCC43CCC4(CCN(C5CCN(C(=O)C6CCN(c7ccc([C@@H]8c9ccc(O)cc9CC[C@@H]8c8ccccc8)cc7)CC6)CC5)CC4)CC3)C2=O)C(=O)N1 (stereo partly shown) [ER-P-5] | > 9.59 | 25% | 57% | 39% | 79% | 9.02 | – | – |
| Cn1c(=O)n(C2CCC(=O)NC2=O)c2cc3c(cc21)C1(CCN(C2CC4(CCN(c5ccc([C@@H]6c7ccc(O)cc7CC[C@@H]6c6ccccc6)cc5)CC4)C2)CC1)CO3 (stereo partly drawn) [ER-P-12, 3-(1'-(7-(4-((1R,2S)-6-hydroxy-2-phenyl-1,2,3,4-tetrahydronaphthalen-1-yl)phenyl)-7-azaspiro[3.5]nonan-2-yl)-1-methyl-2-oxo-1,2-dihydro-3H,6H-spiro[benzofuro[5,6-d]imidazole-7,4'-piperidin]-3-yl)piperidine-2,6-dione] | 7.60 | -9% | -11% | 34% | 38% | 8.62 | – | – |
| COc1cc2c(cc1C(=O)N[C@H]1CCC(=O)NC1=O)OCC21CCN(CC2CCC(OC3CCN(c4ccc([C@@H]5c6ccc(O)cc6CC[C@@H]5c5ccccc5)cc4)CC3)CC2)CC1 (stereo partly drawn) [ER-P-84, N-((S)-2,6-dioxopiperidin-3-yl)-1'-(((1S,4R)-4-((1-(4-((1R,2S)-6-hydroxy-2-phenyl-1,2,3,4-tetrahydronaphthalen-1-yl)phenyl)piperidin-4-yl)oxy)cyclohexyl)methyl)-5-methoxy-2H-spiro[benzofuran-3,4'-piperidine]-6-carboxamide] | – | – | – | – | – | – | 5.08 | 7.75 |
| Cn1c(=O)n(C2CCC(=O)NC2=O)c2ccc3c(c21)OCC31CCN(C(=O)CN2CCC3(CCN(c4ccc([C@@H]5c6ccc(O)cc6CC[C@@H]5c5ccccc5)cc4)CC3)C2)CC1 (stereo partly drawn) [ER-P-68, 3-(1'-(2-(8-(4-((1R,2S)-6-hydroxy-2-phenyl-1,2,3,4-tetrahydronaphthalen-1-yl)phenyl)-2,8-diazaspiro[4.5]decan-2-yl)acetyl)-1-methyl-2-oxo-1,2-dihydro-3H,7H-spiro[benzofuro[6,7-d]imidazole-6,4'-piperidin]-3-yl)piperidine-2,6-dione] | 8.08 | – | – | – | – | 8.93 | – | – |
| O=C1CC[C@H](NC(=O)c2ccc3c(c2F)OCC32CCN(CC3CCC(OC4CCN(c5ccc([C@@H]6c7ccc(O)cc7CC[C@@H]6c6ccccc6)cc5)CC4)CC3)CC2)C(=O)N1 (stereo partly drawn) [ER-P-82, N-((S)-2,6-dioxopiperidin-3-yl)-7-fluoro-1'-(((1S,4R)-4-((1-(4-((1R,2S)-6-hydroxy-2-phenyl-1,2,3,4-tetrahydronaphthalen-1-yl)phenyl)piperidin-4-yl)oxy)cyclohexyl)methyl)-2H-spiro[benzofuran-3,4'-piperidine]-6-carboxamide] | – | – | – | – | – | – | 5.36 | 7.55 |
| COc1cc2c(cc1C(=O)NC1CCC(=O)NC1=O)CCC1(CCN(CC3CCC(OC4CCN(c5ccc(C6c7ccc(O)cc7CCC6c6ccccc6)cc5)CC4)CC3)CC1)O2 (stereo not shown) [ER-P-88] | 5.99 | – | – | – | – | 8.02 | – | – |
| O=C1CC[C@H](NC(=O)c2c(F)ccc3c2OCC32CCN(CC3CCC(OC4CCN(c5ccc([C@@H]6c7ccc(O)cc7CC[C@@H]6c6ccccc6)cc5)CC4)CC3)CC2)C(=O)N1 (stereo partly shown) [ER-P-86] | – | – | – | – | – | – | 5.18 | 7.16 |
